The record followed here is patent US4208514A, “4(3H)-Oxobenzo-2,1,3-thiadiazine-2,2-dioxides” (The Dow Chemical Company, priority 1976, dated 1980).

Molecules are shown by their SMILES.

What all share (assay type): in vivo
Assay [1] deals with Pig Weed. The assay can be described thus: General post-emergent herbicidal activity at 10 lbs/acre, Pig Weed. To be noted: post-emergence, 336 h. The source says:
(§1) Various species of plants, both broadleaf weeds and valuable crops, were planted in beds of good agricultural soil in a greenhouse. After the plants had emerged and grown to a height of about 2-6 inches, a portion of the plants were sprayed with an aqueous mixture, made by mixing a selected active ingredient and […], […] Other portions of the plants were left untreated to serve as controls. In each test the active ingredient was a 3-methylethyl-1H-2,1,3-benzothiadiazin-4(3H)-one-2,2-dioxide having a substituent in the one position according to the invention.
(§2) After a period of 2 weeks the selective effect of the test ingredient on the plants was evaluated by a comparison with the control group of plants.

The subject of assay [2] is Velvet Leaf. The assay is described as follows: General post-emergent herbicidal activity at 10 lbs/acre, Velvet Leaf. To be noted: post-emergence, 336 h.
Excerpt: as §1, §2

Assay [3] has as its system Nutsedge. The assay can be described thus: General post-emergent herbicidal activity at 10 lbs/acre, Nutsedge. To be noted: Cyperus, post-emergence, 336 h.
Excerpt: as §1, §2

In assay [4] the test system is Annual Morning Glory. The assay can be described thus: General post-emergent herbicidal activity at 10 lbs/acre, Annual Morning Glory. To be noted: Ipomoea, post-emergence, 336 h.
Excerpt: as §1, §2

The subject of assay [5] is Jimson Weed. The assay can be described thus: Selective post-emergent greenhouse test, Jimson Weed. To be noted: post-emergence, 336 h, 2 weeks; for pest or weed control at 358.672 g/ha: 0.32 lbs/acre; for pest or weed control at 706.135 g/ha: 0.63 lbs/acre.
Excerpt: (§3) So as to illustrate clearly the phytotoxic properties of the various active ingredients of the present invention, a group of controlled greenhouse experiments is described below.
(§4) Various species of plants, both broadleaf weeds and valuable crops, were planted in beds of good agricultural soil in a greenhouse. After the plants had emerged and grown to a height of about 2-6 inches, a portion of the plants were sprayed with an aqueous mixture, made by mixing a selected active ingredient and emulsifier or dispersant with water to provide solution containing 250 or 125 ppm active ingredient, employing sufficient amounts of the treating composition to provide low post emergent application rates of about 0.63 or 0.32 pounds per acre. Other portions of the plants were left untreated to serve as controls. In each test the active ingredient was a 3-methylethyl-1H-2,1,3-benzothiadiazin-4(3H)-one-2,2-dioxide having a substituent in the one position according to the invention.
as §2

The test system of assay [6] is Cotton. The assay is described as follows: Selective post-emergent greenhouse test, Cotton (crop injury). To be noted: Gossypium hirsutum, post-emergence, 336 h, post-emergent, 2 weeks, crop, read-out: % Control Cotton; for plant injury at 358.672 g/ha: 0.32 lbs/acre; for plant injury at 706.135 g/ha: 0.63 lbs/acre.
Excerpt: as §3, §4, §2

Assay [7] deals with Velvet Leaf. The assay is described as follows: Selective post-emergent greenhouse test, Velvet Leaf. To be noted: post-emergence, 336 h, 2 weeks; for pest or weed control at 358.672 g/ha: 0.32 lbs/acre; for pest or weed control at 706.135 g/ha: 0.63 lbs/acre.
Excerpt: as §3, §4, §2

Assay [8] concerns Soybean. The assay is described as follows: Selective post-emergent greenhouse test, Soybean (crop injury). To be noted: Glycine max, post-emergence, 336 h, 2 weeks, read-out: % Control Soybean; for plant injury at 358.672 g/ha: 0.32 lbs/acre; for plant injury at 706.135 g/ha: 0.63 lbs/acre.
Excerpt: as §3, §4, §2

The term pest or weed control denotes the degree to which the test organism was suppressed or injured, in per cent. On to `CCS(=O)(=O)N1c2ccccc2C(=O)N(C(C)C)S1(=O)=O` [SO2 CH2 CH3, 1H-2,1,3-Benzothiadiazin-4(3H)-one; 1-Ethylsulfonyl-3-(1-methylethyl)-; 2,2-dioxide], for which the pest or weed control at 11208.5 g/ha in assay [1] worked out at 100%; in assay [2] it was 100%; in assay [3] it was 85%; in assay [4] it was 100%.

Take `COC(=O)N1c2ccccc2C(=O)N(C(C)C)S1(=O)=O` [CO2 CH3]: the pest or weed control at 358.672 g/ha in assay [5] and in assay [7] was 100% throughout. In addition, the pest or weed control at 706.135 g/ha in assay [5] and in assay [7] was 100% throughout. Further, the plant injury at 358.672 g/ha in assay [6] and in assay [8] was 0% each time. Further, the results for the plant injury at 706.135 g/ha in assay [6] and in assay [8] were 10% and 0%, respectively. Moreover, the pest or weed control at 11208.5 g/ha in assay [1] was 100%; in assay [2], 100%; in assay [3] it was 50%; in assay [4], 100%.

`CC(=O)N1c2ccccc2C(=O)N(C(C)C)S1(=O)=O` [COCH3, 1H-2,1,3-Benzothiadiazin-4(3H)-one: 1-acetyl-3-(1-methyl-ethyl)-; 2,2-dioxide]: the pest or weed control at 358.672 g/ha in assay [5] was 60%; in assay [7] it was 100%. In addition, the pest or weed control at 706.135 g/ha in assay [5] turned out to be 60%; in assay [7] it was 100%. The results for the plant injury at 358.672 g/ha in assay [6] and in assay [8] were 5% and 0%, respectively. Also, the plant injury at 706.135 g/ha in assay [6] and in assay [8] was 0% in each case. The pest or weed control at 11208.5 g/ha worked out at 100% in assay [1], 100% in assay [2], 95% in assay [3] and 100% in assay [4].

For the compound `CC(C)OC(=O)N1c2ccccc2C(=O)N(C(C)C)S1(=O)=O` [CO2 CH(CH3)2], the pest or weed control at 11208.5 g/ha in assay [1] came to 0%; in assay [2] it was 100%; in assay [3], 70%; in assay [4], 50%.

In the case of `CC(C)C(=O)N1c2ccccc2C(=O)N(C(C)C)S1(=O)=O` [COCH(CH3)2, 1H-2,1,3-Benzothiadiazin-4 (3H)-one:3-(1-methylethyl)-1-(2- -methyl-1-oxopropyl)-2,2-dioxide], the results for the pest or weed control at 11208.5 g/ha in assay [2], in assay [3] and in assay [4] were 100%, 95% and 100%, respectively.

In the case of `CCCCS(=O)(=O)N1c2ccccc2C(=O)N(C(C)C)S1(=O)=O` [SO2 (CH2)3 CH3, 1H-2,1,3-Benzothiadiazin-4(3H)-one: 1-Butylsulfonyl-3-(1-methylethyl)-; 2,2-dioxide], the pest or weed control at 11208.5 g/ha in assay [1] was determined as 100%; in assay [2] it was 100%; in assay [3] it was 85%; in assay [4], 100%.

In the case of `CCCC(C)C(=O)N1c2ccccc2C(=O)N(C(C)C)S1(=O)=O` (centres unmarked) [COCH(CH3)CH2 CH2 CH3, 1H-2,1,3-Benzothiadiazin-4(3H)-one: 3-(1-methylethyl)-1-(2-methyl-1-oxopentyl)-; 2,2-dioxide], the pest or weed control at 11208.5 g/ha worked out at 100% in assay [2], 95% in assay [3] and 100% in assay [4].

For the compound `CCCS(=O)(=O)N1c2ccccc2C(=O)N(C(C)C)S1(=O)=O` [SO2 CH2 CH 2 CH3, 1H-2,1,3-Benzothiadiazin-4(3H)-one: 3-(1-methylethyl)-1-propylsulfonyl-; 2,2-dioxide], the pest or weed control at 11208.5 g/ha was 100% in assay [1], 100% in assay [2], 90% in assay [3] and 100% in assay [4].

`CCCOC(=O)N1c2ccccc2C(=O)N(C(C)C)S1(=O)=O` [CO2 CH2 CH2 CH3]: the pest or weed control at 11208.5 g/ha in assay [1] was 100%; in assay [2] it was 100%; in assay [3], 90%; in assay [4], 100%.

For the compound `CCCCOC(=O)N1c2ccccc2C(=O)N(C(C)C)S1(=O)=O` [CO2 (CH2)3 CH3], the pest or weed control at 11208.5 g/ha in assay [1] turned out to be 100%; in assay [2] it was 100%; in assay [3], 95%; in assay [4] it was 100%.

As to `CCN(CC)S(=O)(=O)N1c2ccccc2C(=O)N(C(C)C)S1(=O)=O` [SO2 N(C2 H5)2], the pest or weed control at 11208.5 g/ha was 100% in assay [1], 100% in assay [2], 60% in assay [3] and 100% in assay [4].

In the case of `CCCC(=O)N1c2ccccc2C(=O)N(C(C)C)S1(=O)=O` [COCH2 CH2 CH3], the pest or weed control at 11208.5 g/ha in assay [1] turned out to be 100%; in assay [2], 100%; in assay [3] it was 90%; in assay [4], 100%.

`CC(C)N1C(=O)c2ccccc2N(S(=O)(=O)C(C)C)S1(=O)=O` [SO2 CH(CH3)2, 1H-2,1,3-Benzothiadiazin-4(3H)-one: 3-(1-methylethyl)-1-(1-methylethylsulfonyl)-; 2,2-dioxide]: the pest or weed control at 11208.5 g/ha in assay [1] was found to be 100%; in assay [2] it was 100%; in assay [3], 85%; in assay [4] it was 100%.

For the compound `CC(C)N1C(=O)c2ccccc2N(S(=O)(=O)CCl)S1(=O)=O` [SO2 CHCl, 1H-2,1,3-Benzothiadiazin-4(3H)-one: 1-chloromethylsulfonyl-3-(1-methylethyl)-; 2,2-dioxide], the pest or weed control at 11208.5 g/ha was found to be 100% in assay [1], 100% in assay [2], 90% in assay [3] and 80% in assay [4].

`CC(C)N1C(=O)c2ccccc2N(S(C)(=O)=O)S1(=O)=O` [SO2 CH3, 1H-2,1,3-Benzothiadiazin-4(3H)-one: 3-(1-methylethyl)-1-methylsulfonyl-; 2,2-dioxide]: the pest or weed control at 11208.5 g/ha was determined as 100% in assay [1], 100% in assay [2], 20% in assay [3] and 100% in assay [4].

As to `COC(=O)CCC(=O)N1c2ccccc2C(=O)N(C(C)C)S1(=O)=O` [COCH2 CH2 CO2 CH3, 1H-2,1,3-Benzothiadiazin-1-butanoic acid; γ,4-Dioxo-3-(1-methylethyl)-3,4-dihydro-, methyl ester; 2,2-dioxide], the pest or weed control at 11208.5 g/ha in assay [2] turned out to be 100%; in assay [3], 95%; in assay [4], 100%.
